According to PubChem BioAssay (NCI):
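48-hour exposure; five concentrations; linearly interpolated endpoints. At the GI50, growth is halved. Definition used: TGI = concentration required for complete inhibition of growth.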

Tests used:
Assay in all cases: growth of human tumour cells (NCI), 48 h
HL-60(TB) leukemia = system: HL-60(TB) leukemia
SF-295 CNS = system: SF-295 CNS
MALME-3M melanoma = system: MALME-3M melanoma
NCI-H522 lung = system: NCI-H522 lung
UO-31 renal = system: UO-31 renal
OVCAR-3 ovarian = system: OVCAR-3 ovarian
A498 renal = system: A498 renal
SF-268 CNS = system: SF-268 CNS
OVCAR-5 ovarian = system: OVCAR-5 ovarian
LOX IMVI melanoma = system: LOX IMVI melanoma
RPMI-8226 leukemia = system: RPMI-8226 leukemia
DU-145 prostate = system: DU-145 prostate
KM12 colon = system: KM12 colon
SN12C renal = system: SN12C renal
MDA-MB-435 = system: MDA-MB-435
MDA-MB-231 breast = system: MDA-MB-231 breast
UACC-62 melanoma = system: UACC-62 melanoma
EKVX NSCLC = system: EKVX NSCLC
U251 CNS = system: U251 CNS
RXF 393 renal = system: RXF 393 renal
A549 NSCLC = system: A549 NSCLC
SR leukemia = system: SR leukemia
T-47D breast = system: T-47D breast
NCI/ADR-RES ovarian = system: NCI/ADR-RES ovarian
HCT-15 colon = system: HCT-15 colon
SNB-75 CNS = system: SNB-75 CNS
HCC-2998 colon = system: HCC-2998 colon
MOLT-4 leukemia = system: MOLT-4 leukemia
OVCAR-8 ovarian = system: OVCAR-8 ovarian
M14 melanoma = system: M14 melanoma
MCF7 breast = system: MCF7 breast
786-0 renal = system: 786-0 renal
OVCAR-4 ovarian = system: OVCAR-4 ovarian
IGROV1 ovarian = system: IGROV1 ovarian
K-562 leukemia = system: K-562 leukemia
HCT-116 colon = system: HCT-116 colon
HS 578T breast = system: HS 578T breast
CCRF-CEM leukemia = system: CCRF-CEM leukemia
HOP-92 NSCLC = system: HOP-92 NSCLC
CAKI-1 renal = system: CAKI-1 renal
SW-620 colon = system: SW-620 colon
SK-MEL-28 melanoma = system: SK-MEL-28 melanoma
TK-10 renal = system: TK-10 renal
SK-OV-3 ovarian = system: SK-OV-3 ovarian
HOP-62 NSCLC = system: HOP-62 NSCLC
HT29 colon = system: HT29 colon
UACC-257 melanoma = system: UACC-257 melanoma
BT-549 breast = system: BT-549 breast
PC-3 prostate = system: PC-3 prostate
SK-MEL-5 melanoma = system: SK-MEL-5 melanoma
COLO 205 colon = system: COLO 205 colon
NCI-H226 lung = system: NCI-H226 lung
SF-539 CNS = system: SF-539 CNS
SK-MEL-2 melanoma = system: SK-MEL-2 melanoma
SNB-19 CNS = system: SNB-19 CNS
NCI-H460 lung = system: NCI-H460 lung
ACHN renal = system: ACHN renal

## CCNC(=O)N1CCc2cc(OC)c(OCCc3ccc(OC)cc3)cc2C1c1ccc(Cl)cc1C (centres undefined)
HL-60(TB) leukemia
  GI50: 643 nM
  TGI: 3970 nM
SF-295 CNS
  GI50: 711 nM
  TGI: 12700 nM
MALME-3M melanoma
  GI50: 3650 nM
  TGI: > 100000 nM
NCI-H522 lung
  GI50: 700 nM
  TGI: 2950 nM
UO-31 renal
  GI50: 932 nM
  TGI: > 100000 nM
OVCAR-3 ovarian
  GI50: 1040 nM
  TGI: > 100000 nM
A498 renal
  GI50: 4020 nM
  TGI: > 24200 nM
SF-268 CNS
  GI50: 1030 nM
  TGI: > 100000 nM
OVCAR-5 ovarian
  GI50: 1860 nM
  TGI: > 100000 nM
LOX IMVI melanoma
  GI50: 186 nM
  TGI: 1770 nM
RPMI-8226 leukemia
  GI50: 403 nM
  TGI: 3950 nM
DU-145 prostate
  GI50: 830 nM
  TGI: > 100000 nM
KM12 colon
  GI50: 1380 nM
  TGI: > 31400 nM
SN12C renal
  GI50: 1020 nM
  TGI: > 25000 nM
MDA-MB-435
  GI50: 660 nM
  TGI: 5820 nM
MDA-MB-231 breast
  GI50: 801 nM
  TGI: > 100000 nM
UACC-62 melanoma
  GI50: 532 nM
  TGI: 6440 nM
EKVX NSCLC
  GI50: 4090 nM
  TGI: > 100000 nM
U251 CNS
  GI50: 479 nM
  TGI: > 40100 nM
RXF 393 renal
  GI50: 1450 nM
  TGI: > 21600 nM
A549 NSCLC
  GI50: 735 nM
  TGI: > 100000 nM
SR leukemia
  GI50: 96.1 nM
  TGI: 3300 nM
T-47D breast
  GI50: 1840 nM
  TGI: > 100000 nM
NCI/ADR-RES ovarian
  GI50: 735 nM
  TGI: 5810 nM
HCT-15 colon
  GI50: 85.3 nM
  TGI: > 100000 nM
SNB-75 CNS
  GI50: 456 nM
  TGI: 6300 nM
HCC-2998 colon
  GI50: 1270 nM
  TGI: > 33300 nM
MOLT-4 leukemia
  GI50: 338 nM
  TGI: > 100000 nM
OVCAR-8 ovarian
  GI50: 669 nM
  TGI: > 100000 nM
M14 melanoma
  GI50: 726 nM
  TGI: > 100000 nM
MCF7 breast
  GI50: 422 nM
  TGI: > 100000 nM
786-0 renal
  GI50: 421 nM
  TGI: > 100000 nM
OVCAR-4 ovarian
  GI50: 2580 nM
  TGI: > 100000 nM
IGROV1 ovarian
  GI50: 607 nM
  TGI: > 100000 nM
K-562 leukemia
  GI50: 92.4 nM
  TGI: > 100000 nM
HCT-116 colon
  GI50: 86.6 nM
  TGI: > 100000 nM
HS 578T breast
  GI50: 1700 nM
  TGI: 8990 nM
CCRF-CEM leukemia
  GI50: 382 nM
  TGI: > 100000 nM
HOP-92 NSCLC
  GI50: 1480 nM
  TGI: > 21400 nM
CAKI-1 renal
  GI50: 736 nM
  TGI: > 50100 nM
SW-620 colon
  GI50: 568 nM
  TGI: > 100000 nM
SK-MEL-28 melanoma
  GI50: 943 nM
  TGI: > 100000 nM
TK-10 renal
  GI50: 3520 nM
  TGI: > 100000 nM
SK-OV-3 ovarian
  GI50: 2110 nM
  TGI: > 100000 nM
HOP-62 NSCLC
  GI50: 958 nM
  TGI: > 100000 nM
HT29 colon
  GI50: 444 nM
  TGI: 3140 nM
UACC-257 melanoma
  GI50: 2310 nM
  TGI: > 100000 nM
BT-549 breast
  GI50: 1060 nM
  TGI: 4570 nM
PC-3 prostate
  GI50: 217 nM
  TGI: > 100000 nM
SK-MEL-5 melanoma
  GI50: 670 nM
  TGI: 2310 nM
COLO 205 colon
  GI50: 1020 nM
  TGI: 5940 nM
NCI-H226 lung
  GI50: 1890 nM
  TGI: 7060 nM
SF-539 CNS
  GI50: 410 nM
  TGI: 3160 nM
SK-MEL-2 melanoma
  GI50: 3520 nM
  TGI: > 23700 nM
SNB-19 CNS
  GI50: 683 nM
  TGI: > 100000 nM
NCI-H460 lung
  GI50: 100 nM
  TGI: 2250 nM
ACHN renal
  GI50: 676 nM
  TGI: > 100000 nM
